# In paper PMC12067315 (European journal of medicinal chemistry, 2022):
# Like-named read-outs stand apart in the source and are kept apart here.
# Legend:
# α2A-AR = target: T1, α2A-AR (Homo sapiens, UniProt P08913); type: binding
# T1 sequence (P08913 1-465): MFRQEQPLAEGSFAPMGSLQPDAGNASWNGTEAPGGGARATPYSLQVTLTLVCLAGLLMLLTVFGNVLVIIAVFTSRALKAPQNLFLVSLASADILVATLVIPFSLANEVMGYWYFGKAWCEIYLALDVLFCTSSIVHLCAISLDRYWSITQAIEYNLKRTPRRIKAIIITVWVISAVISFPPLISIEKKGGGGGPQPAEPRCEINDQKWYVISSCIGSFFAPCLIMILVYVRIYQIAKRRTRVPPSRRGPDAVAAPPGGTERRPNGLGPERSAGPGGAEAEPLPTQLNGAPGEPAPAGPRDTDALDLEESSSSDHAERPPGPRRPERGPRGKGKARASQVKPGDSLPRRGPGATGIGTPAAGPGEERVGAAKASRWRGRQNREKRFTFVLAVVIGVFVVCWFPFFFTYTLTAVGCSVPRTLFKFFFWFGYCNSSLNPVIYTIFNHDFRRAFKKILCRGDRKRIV
# α2C-AR = target: T2, α2C-AR (Homo sapiens, UniProt P18825); type: binding; details: for Subtype Selectivity (α2A/α2C): ratio between Ki for α2A vs. α2C
# T2 sequence (P18825 1-462): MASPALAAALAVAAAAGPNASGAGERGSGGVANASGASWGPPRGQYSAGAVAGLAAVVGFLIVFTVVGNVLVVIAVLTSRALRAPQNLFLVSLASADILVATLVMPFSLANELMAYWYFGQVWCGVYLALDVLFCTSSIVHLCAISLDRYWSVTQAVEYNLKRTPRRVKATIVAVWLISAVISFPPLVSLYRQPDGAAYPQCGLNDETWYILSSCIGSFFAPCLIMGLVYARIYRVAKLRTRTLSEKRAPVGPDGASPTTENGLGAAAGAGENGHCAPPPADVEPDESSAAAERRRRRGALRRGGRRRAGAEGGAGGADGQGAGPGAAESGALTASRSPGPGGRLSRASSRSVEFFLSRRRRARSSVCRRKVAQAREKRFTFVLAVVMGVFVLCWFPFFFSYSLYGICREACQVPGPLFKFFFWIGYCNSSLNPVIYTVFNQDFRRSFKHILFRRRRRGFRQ
# α2A [1] = details: read-out: α2A (nM), literature Kb; literature Kb values; cited from earlier work
# α2C [2] = details: read-out: α2C (nM), literature Kb; literature Kb values; cited from earlier work
# α2C [3] = details: read-out: α2C (nM), literature Ki; literature Ki values; cited from earlier work
# α2A [4] = details: read-out: α2A (nM), literature Ki; literature Ki values; cited from earlier work
# α2C [5] = details: read-out: α2C (nM), literature Kd; literature Kd values; cited from earlier work
# α2A [6] = details: read-out: α2A (nM), literature Kd; literature Kd values; cited from earlier work
"Ki (α2A-AR; read-out: α2A (Ki), HEK293 membranes, 1 nM [3H]RX821002, Ki ± standard deviation) [nM]","Ki (α2C-AR; read-out: α2C (Ki), HEK293 membranes, 1 nM [3H]RX821002, Ki ± standard deviation) [nM]",SMILES,Ki (α2A-AR) [nM],Ki (α2C-AR) [nM],Subtype Selectivity (α2A/α2C) (α2C-AR),Kb (α2A [1]) [nM],Kb (α2C [2]) [nM],Ki (α2C [3]) [nM],Ki (α2A [4]) [nM],Kd (α2C [5]) [nM],Kd (α2A [6]) [nM]
,,"COCc1scnc1N1CCN(C[C@H]2COc3ccccc3O2)CC1 [Compound 1, (S)-4-(4-((2,3-dihydrobenzo[b][1,4]dioxin-2-yl)methyl)piperazin-1-yl)-5-(methoxymethyl)thiazole]",1.06 ± 0.52,0.25 ± 0.01,4.24,88,< 0.1,,,,
,,"COCc1c(C)nn(C)c1N1CCN(C[C@H]2COc3ccccc3O2)CC1 [Compound 2, (S)-1-((2,3-dihydrobenzo[b][1,4]dioxin-2-yl)methyl)-4-(4-(methoxymethyl)-1,3-dimethyl-1H-pyrazol-5-yl)-piperazine]",12.3 ± 1.2,0.74 ± 0.1,16.6,306,1.62,,,,
,,"COc1ccccc1C1=CC(=O)N([C@H]2CCCN(C[C@H]3COc4ccccc4O3)C2)C1 [Compound 3, 1-((S)-1-(((S)-2,3-dihydrobenzo[b][1,4]dioxin-2-yl)methyl)piperidin-3-yl)-4-(2-methoxyphenyl)-1,5-dihydro-2H-pyrrol-2-one]",458 ± 26,,"751,000",> 449,< 0.001,,,,
,,"COc1cccc(-n2nc(C)cc2N2CCN(C[C@H]3COc4ccccc4O3)CC2)n1 [Compound 4, (S)-1-((2,3-dihydrobenzo[b][1,4]dioxin-2-yl)methyl)-4-(1-(6-methoxypyridin-2-yl)-3-methyl-1H-pyrazol-5-yl)piperazine]",2.77 ± 0.58,0.4 ± 0.07,6.93,82,0.29,,,,
,,"COCc1cccnc1N1CCN(C[C@H]2COc3ccccc3O2)CC1 [ORM-13070, (S)-1-((2,3-dihydrobenzo[b][1,4]dioxin-2-yl)methyl)-4-(3-(methoxymethyl)pyridin-2-yl)piperazine, reference compound]",2.8 ± 0.2,0.25 ± 0.09,11.2,,,3.8,109,,
0.16 ± 0.12,0.29 ± 0.08,"CCS(=O)(=O)N1CCC[C@@H]2CN3CCc4cc(OC)ccc4[C@@H]3C[C@@H]21 [RS79948, reference compound]",,,0.55,,,,,0.77,0.6
